Tests used:
[1] = test system: hiPSC-CMs (iCell2 Cardiomyocytes) 2D monolayers; experiment: Contractility measurements using video imaging (ContractilityTool / MUSCLEMOTION); type: cell-based, human; conditions: for activity at 0.01 µM / activity at 0.03 µM / activity at 0.1 µM / activity at 0.3 µM: Homo sapiens, Cardiomyocyte, 0.5 h, 30 min, delta over DMSO 0.1%
Method in brief: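 Monolayers on fibronectin or Matrix Plus coating, tested on days 5–6 in serum-free medium. Four concentrations, one per well, n = 8, with vehicle control.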

[2] = test system: hiPSC-CMs (iCell2 Cardiomyocytes) 2D monolayers; experiment: Membrane potential (action potential) recordings with FluoVolt voltage-sensitive dye on the CellOPTIQ platform; type: cell-based, human; conditions: for activity at 0.01 µM / activity at 0.03 µM / activity at 0.1 µM / activity at 0.3 µM: Homo sapiens, Cardiomyocyte, 0.5 h, 30 min, delta over DMSO 0.1%
Method in brief: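 iCell2 hiPSC-CM monolayers (50,000 cells/well on fibronectin or Matrix Plus, days 5–6) were loaded with FluoVolt (1:1000, 20 min, 37 °C) and imaged at 37 °C with 470 nm excitation and 510–560 nm emission sampled at 10 kHz. Spontaneous action potentials were recorded for 10 s at baseline and 30 min after drug, with one of four concentrations per well (n = 8).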

[3] = 300 nM, both 2D systems, positive control
[4] = FM monolayer, read-out: CtAmp (%DD)
[5] = FM monolayer, read-out: CtD50 (%DD)
[6] = MM monolayer, read-out: CtAmp (%DD)
[7] = MM monolayer, read-out: CtD50 (%DD)
[8] = FM monolayer, read-out: APD30 (%DD)
[9] = FM monolayer, read-out: APD90 (%DD)
[10] = FM monolayer, read-out: CL (%DD)
[11] = FM monolayer, read-out: Trise (%DD)
[12] = MM monolayer, read-out: APD30 (%DD)
[13] = MM monolayer, read-out: APD90 (%DD)
[14] = MM monolayer, read-out: CL (%DD)
[15] = MM monolayer, read-out: Trise (%DD)
[16] = both FM and MM monolayers, concentration not given

SMILES: CC(C)NCC(O)c1ccc(O)c(O)c1 (stereo not shown) [Isoprenaline]
- effect on contraction duration [1, 3]: decreased
- activity at 0.01 µM [1, 4]: 94 ± 5.2%
- activity at 0.01 µM [1, 5]: 94 ± 1%
- activity at 0.03 µM [1, 4]: 90 ± 8.3%
- activity at 0.03 µM [1, 5]: 88 ± 4.6%
- activity at 0.1 µM [1, 4]: 125 ± 17.9%
- activity at 0.1 µM [1, 5]: 76 ± 2.8%
- activity at 0.3 µM [1, 4]: 68 ± 8.5%
- activity at 0.3 µM [1, 5]: 58 ± 1.6%
- activity at 0.01 µM [1, 6]: 123 ± 14.4%
- activity at 0.01 µM [1, 7]: 96 ± 2.3%
- activity at 0.03 µM [1, 6]: 112 ± 11.7%
- activity at 0.03 µM [1, 7]: 88 ± 2.3%
- activity at 0.1 µM [1, 6]: 121 ± 16.1%
- activity at 0.1 µM [1, 7]: 68 ± 2.7%
- activity at 0.3 µM [1, 6]: 105 ± 14.9%
- activity at 0.3 µM [1, 7]: 57 ± 1.8%
- effect on APD90 [2, 3]: decreased
- effect on spontaneous beat rate [2, 3]: increased
- activity at 0.01 µM [2, 8]: 97 ± 2%
- activity at 0.01 µM [2, 9]: 94 ± 1.9%
- activity at 0.01 µM [2, 10]: 90 ± 1.4%
- activity at 0.01 µM [2, 11]: 80 ± 7.3%
- activity at 0.03 µM [2, 8]: 85 ± 1.7%
- activity at 0.03 µM [2, 9]: 77 ± 0.6%
- activity at 0.03 µM [2, 10]: 74 ± 0.6%
- activity at 0.03 µM [2, 11]: 97 ± 8.6%
- activity at 0.1 µM [2, 8]: 68 ± 0.8%
- activity at 0.1 µM [2, 9]: 60 ± 1%
- activity at 0.1 µM [2, 10]: 56 ± 0.6%
- activity at 0.1 µM [2, 11]: 106 ± 4.5%
- activity at 0.3 µM [2, 8]: 62 ± 1%
- activity at 0.3 µM [2, 9]: 52 ± 0.5%
- activity at 0.3 µM [2, 10]: 49 ± 0.6%
- activity at 0.3 µM [2, 11]: 106 ± 8.1%
- activity at 0.01 µM [2, 12]: 92 ± 0.8%
- activity at 0.01 µM [2, 13]: 96 ± 0.8%
- activity at 0.01 µM [2, 14]: 90 ± 0.9%
- activity at 0.01 µM [2, 15]: 146 ± 13.3%
- activity at 0.03 µM [2, 12]: 83 ± 0.9%
- activity at 0.03 µM [2, 13]: 86 ± 1%
- activity at 0.03 µM [2, 14]: 77 ± 0.6%
- activity at 0.03 µM [2, 15]: 115 ± 12.9%
- activity at 0.1 µM [2, 12]: 68 ± 1.5%
- activity at 0.1 µM [2, 13]: 68 ± 1.2%
- activity at 0.1 µM [2, 14]: 63 ± 0.8%
- activity at 0.1 µM [2, 15]: 93 ± 5.5%
- activity at 0.3 µM [2, 12]: 62 ± 0.8%
- activity at 0.3 µM [2, 13]: 61 ± 0.9%
- activity at 0.3 µM [2, 14]: 56 ± 0.8%
- activity at 0.3 µM [2, 15]: 129 ± 10.9%
- effect on APD90 (in words) [2, 16]: significantly decreased

SMILES: COc1ccc([C@@H]2Sc3ccccc3N(CCN(C)C)C(=O)[C@@H]2OC(C)=O)cc1 [Diltiazem]
- activity at 0.01 µM [1, 4]: 142 ± 27.5%
- activity at 0.01 µM [1, 5]: 103 ± 2.8%
- activity at 0.03 µM [1, 4]: 127 ± 27.9%
- activity at 0.03 µM [1, 5]: 95 ± 1.4%
- activity at 0.1 µM [1, 4]: 108 ± 33.5%
- activity at 0.1 µM [1, 5]: 82 ± 1.6%
- activity at 0.3 µM [1, 4]: 59 ± 15.4%
- activity at 0.3 µM [1, 5]: 68 ± 1.4%
- activity at 0.01 µM [1, 6]: 101 ± 11.1%
- activity at 0.01 µM [1, 7]: 105 ± 2.7%
- activity at 0.03 µM [1, 6]: 94 ± 7.8%
- activity at 0.03 µM [1, 7]: 99 ± 2.6%
- activity at 0.1 µM [1, 6]: 93 ± 6.2%
- activity at 0.1 µM [1, 7]: 81 ± 1.2%
- activity at 0.3 µM [1, 6]: 73 ± 5.8%
- activity at 0.3 µM [1, 7]: 61 ± 1.9%
- activity at 0.01 µM [2, 8]: 98 ± 1.9%
- activity at 0.01 µM [2, 9]: 96 ± 1.1%
- activity at 0.01 µM [2, 10]: 102 ± 1.1%
- activity at 0.01 µM [2, 11]: 105 ± 17%
- activity at 0.03 µM [2, 8]: 92 ± 1.5%
- activity at 0.03 µM [2, 9]: 92 ± 0.9%
- activity at 0.03 µM [2, 10]: 103 ± 1.3%
- activity at 0.03 µM [2, 11]: 103 ± 12.5%
- activity at 0.1 µM [2, 8]: 76 ± 2.7%
- activity at 0.1 µM [2, 9]: 78 ± 2.2%
- activity at 0.1 µM [2, 10]: 96 ± 0.8%
- activity at 0.1 µM [2, 11]: 91 ± 12%
- activity at 0.3 µM [2, 8]: 60 ± 1.3%
- activity at 0.3 µM [2, 9]: 62 ± 1.1%
- activity at 0.3 µM [2, 10]: 85 ± 0.5%
- activity at 0.3 µM [2, 11]: 116 ± 13.8%
- activity at 0.01 µM [2, 12]: 100 ± 1.9%
- activity at 0.01 µM [2, 13]: 96 ± 0.6%
- activity at 0.01 µM [2, 14]: 98 ± 0.9%
- activity at 0.01 µM [2, 15]: 86 ± 16.4%
- activity at 0.03 µM [2, 12]: 91 ± 1.2%
- activity at 0.03 µM [2, 13]: 90 ± 0.7%
- activity at 0.03 µM [2, 14]: 96 ± 0.9%
- activity at 0.03 µM [2, 15]: 79 ± 4%
- activity at 0.1 µM [2, 12]: 80 ± 1.6%
- activity at 0.1 µM [2, 13]: 77 ± 1.2%
- activity at 0.1 µM [2, 14]: 83 ± 0.6%
- activity at 0.1 µM [2, 15]: 79 ± 14.3%
- activity at 0.3 µM [2, 12]: 65 ± 0.8%
- activity at 0.3 µM [2, 13]: 62 ± 0.9%
- activity at 0.3 µM [2, 14]: 71 ± 0.5%
- activity at 0.3 µM [2, 15]: 74 ± 8.9%
- effect on APD30 (in words) [2, 16]: shortening
- effect on APD90 (in words) [2, 16]: shortening
- effect on beating rate / spontaneous rate (in words) ([2]; both FM and MM, concentration not given): increase
